In patent publication US20160090556A1, “PRODUCTS COMPRISING MALODOR REDUCTION MATERIALS” (The Procter & Gamble Company, priority 2014, published 2016):

experiment: Liquid dish neat product liquid-air partition coefficient; format: physicochemical; conditions: not given

**Q.** With `CCCC(O)Cc1ccccc1` (stereo not drawn) [Material 730] as the compound, how does the “Log of liquid dish neat product liquid-air partition coefficient (Comment Code K/L)” value (“Log … (Comment Code K/L)” for short) read?
**A.** K (Log of liquid dish neat product liquid-air partition coefficient greater than or equal to −7)

**Q.** For `CCCCCOC(=O)C=Cc1ccccc1` [Material 671], which “Log … (Comment Code K/L)” value is on record?
**A.** K (Log of liquid dish neat product liquid-air partition coefficient greater than or equal to −7)

**Q.** Which “Log … (Comment Code K/L)” value does the source give for `CC1C(C)(C)C2CCC3CC(C)(C)OC3C2C1(C)C` (stereo not drawn) [Material 680] here?
**A.** K (Log of liquid dish neat product liquid-air partition coefficient greater than or equal to −7)

**Q.** For `CC(C)(C)c1ccc(CCC=O)cc1` [Material 601], which “Log … (Comment Code K/L)” value is on record?
**A.** K (Log of liquid dish neat product liquid-air partition coefficient greater than or equal to −7)

**Q.** With `CCCCCCCCCCCCCO` [Material 1090] as the compound, how does the “Log … (Comment Code K/L)” value read?
**A.** K (Log of liquid dish neat product liquid-air partition coefficient greater than or equal to −7)

**Q.** With `CCOCOC1CCCCCCCCCCC1` [Material 607] as the compound, how does the “Log … (Comment Code K/L)” value read?
**A.** K (Log of liquid dish neat product liquid-air partition coefficient greater than or equal to −7)

**Q.** Which “Log … (Comment Code K/L)” value does the source give for `C=CC(=C)CCC=C(C)CCC=C(C)C=O` [Material 613] here?
**A.** K (Log of liquid dish neat product liquid-air partition coefficient greater than or equal to −7)

**Q.** With `CCC=C(C)C(O)CCCCC` (stereo not drawn) [Material 1104] as the compound, how does the “Log … (Comment Code K/L)” value read?
**A.** K (Log of liquid dish neat product liquid-air partition coefficient greater than or equal to −7)

**Q.** Which “Log … (Comment Code K/L)” value does the source give for `COC1CC2CC1C1CC(C=O)CC21` (stereo not drawn) [Material 1027] here?
**A.** K (Log of liquid dish neat product liquid-air partition coefficient greater than or equal to −7)

**Q.** Which “Log … (Comment Code K/L)” value does the source give for `OCCOc1ccccc1` [Material 834] here?
**A.** K (Log of liquid dish neat product liquid-air partition coefficient greater than or equal to −7)

**Q.** For `COc1ccc(CC(C)C=O)cc1` (stereo not drawn) [Material 586], which “Log … (Comment Code K/L)” value is on record?
**A.** K (Log of liquid dish neat product liquid-air partition coefficient greater than or equal to −7)

**Q.** With `C=C1C2CCC(C)(OCC)C1CCC2(C)C` (stereo not drawn) [Material 606] as the compound, how does the “Log … (Comment Code K/L)” value read?
**A.** K (Log of liquid dish neat product liquid-air partition coefficient greater than or equal to −7)

**Q.** With `CC(C)=CCC/C(C)=C/CO` [Material 1082] as the compound, how does the “Log … (Comment Code K/L)” value read?
**A.** K (Log of liquid dish neat product liquid-air partition coefficient greater than or equal to −7)

**Q.** Which “Log … (Comment Code K/L)” value does the source give for `CC1(O)CCC2=C(CCCC2(C)C)C1` (stereo not drawn) [Material 676] here?
**A.** K (Log of liquid dish neat product liquid-air partition coefficient greater than or equal to −7)

same assay, conditions: class code letter within Comment Code

**Q.** For `C=CC1(C)CCC(C(C)C)=CC1C(=C)C` (stereo not drawn) [Material 461], which “Log … (Comment Code K/L)” value is on record?
**A.** K (Log of liquid dish neat product liquid-air partition coefficient greater than or equal to −7)

**Q.** With `Cc1ccc(C(C)(C)O)cc1` [Material 4] as the compound, how does the “Log … (Comment Code K/L)” value read?
**A.** K (Log of liquid dish neat product liquid-air partition coefficient greater than or equal to −7)

**Q.** Which “Log … (Comment Code K/L)” value does the source give for `CC1CCCCCCCCCCCCC(=O)C1` (stereo not drawn) [Material 206] here?
**A.** K (Log of liquid dish neat product liquid-air partition coefficient greater than or equal to −7)

**Q.** Which “Log … (Comment Code K/L)” value does the source give for `CC1=CCC(C=CC(C)C(C)O)C1(C)C` (stereo not drawn) [Material 416] here?
**A.** K (Log of liquid dish neat product liquid-air partition coefficient greater than or equal to −7)

**Q.** With `CCC(=O)CCC1C(C)=CCCC1(C)C` (stereo not drawn) [Material 293] as the compound, how does the “Log … (Comment Code K/L)” value read?
**A.** K (Log of liquid dish neat product liquid-air partition coefficient greater than or equal to −7)

**Q.** For `C=CC1(C)CCC(C(C)(C)O)CC1C(=C)C` (stereo not drawn) [Material 414], which “Log … (Comment Code K/L)” value is on record?
**A.** K (Log of liquid dish neat product liquid-air partition coefficient greater than or equal to −7)

**Q.** With `CC(CO)C1CCCCCCCCCCC1` (stereo not drawn) [Material 252] as the compound, how does the “Log … (Comment Code K/L)” value read?
**A.** K (Log of liquid dish neat product liquid-air partition coefficient greater than or equal to −7)

**Q.** Which “Log … (Comment Code K/L)” value does the source give for `c1ccc2c(c1)CC1COCOC21` (stereo not drawn) [Material 247] here?
**A.** K (Log of liquid dish neat product liquid-air partition coefficient greater than or equal to −7)

**Q.** For `CCCCCCCCCCCCCC(=O)OCC` [Material 388], which “Log … (Comment Code K/L)” value is on record?
**A.** K (Log of liquid dish neat product liquid-air partition coefficient greater than or equal to −7)

**Q.** Which “Log … (Comment Code K/L)” value does the source give for `CC1=CCC(=C(C)C)CCC(C)=CCC1` [Material 295] here?
**A.** K (Log of liquid dish neat product liquid-air partition coefficient greater than or equal to −7)

**Q.** With `CC(=O)OC1CC2C3C=CCC3C1C2(C)C` (stereo not drawn) [Material 360] as the compound, how does the “Log … (Comment Code K/L)” value read?
**A.** K (Log of liquid dish neat product liquid-air partition coefficient greater than or equal to −7)

**Q.** For `c1ccc(CCCc2ccccn2)cc1` [Material 497], which “Log … (Comment Code K/L)” value is on record?
**A.** K (Log of liquid dish neat product liquid-air partition coefficient greater than or equal to −7)

**Q.** For `COc1ccccc1-c1ccccc1` [Material 22], which “Log … (Comment Code K/L)” value is on record?
**A.** K (Log of liquid dish neat product liquid-air partition coefficient greater than or equal to −7)

**Q.** For `CCCCCC(=O)OCc1ccco1` [Material 338], which “Log … (Comment Code K/L)” value is on record?
**A.** K (Log of liquid dish neat product liquid-air partition coefficient greater than or equal to −7)

**Q.** Which “Log … (Comment Code K/L)” value does the source give for `CC(=O)OCC1CC=C(CCC=C(C)C)CC1` (stereo not drawn) [Material 74] here?
**A.** K (Log of liquid dish neat product liquid-air partition coefficient greater than or equal to −7)

**Q.** For `CCc1ccccc1CC(C)(C)C=O` [Material 356], which “Log … (Comment Code K/L)” value is on record?
**A.** K (Log of liquid dish neat product liquid-air partition coefficient greater than or equal to −7)

**Q.** With `CC(=O)[C@@]1(C)CC2=C(CCCC2(C)C)C[C@@H]1C` [Material 215] as the compound, how does the “Log … (Comment Code K/L)” value read?
**A.** K (Log of liquid dish neat product liquid-air partition coefficient greater than or equal to −7)

**Q.** With `CCCCCCCCCC/C=C\C#N` [Material 11] as the compound, how does the “Log … (Comment Code K/L)” value read?
**A.** K (Log of liquid dish neat product liquid-air partition coefficient greater than or equal to −7)

**Q.** With `CC(C)C(=O)OC1CC2CCC1(C)C2(C)C` (stereo not drawn) [Material 229] as the compound, how does the “Log … (Comment Code K/L)” value read?
**A.** K (Log of liquid dish neat product liquid-air partition coefficient greater than or equal to −7)

**Q.** Which “Log … (Comment Code K/L)” value does the source give for `CC(C)=CCCC(C)=CCC1CCCC1=O` (stereo not drawn) [Material 307] here?
**A.** K (Log of liquid dish neat product liquid-air partition coefficient greater than or equal to −7)

**Q.** For `C=CCc1ccc(OC)c(OC)c1` [Material 110], which “Log … (Comment Code K/L)” value is on record?
**A.** K (Log of liquid dish neat product liquid-air partition coefficient greater than or equal to −7)

**Q.** Which “Log … (Comment Code K/L)” value does the source give for `CCCCCCC1C(=O)CCC1C(=O)OC` (stereo not drawn) [Material 450] here?
**A.** K (Log of liquid dish neat product liquid-air partition coefficient greater than or equal to −7)

same assay, conditions: code letters K, L

**Q.** For `CC1C(C)(C)C2CCC3CC(C)(C)OC3C2C1(C)C` (stereo not drawn) [Material 680], which “Comment Code: Log of liquid dish neat product liquid-air partition coefficient” value (shortened to “Comment Code: Log”) is on record?
**A.** K (Log of liquid dish neat product liquid-air partition coefficient greater than or equal to −7)

**Q.** With `CC1CCCCCCCCCCCCC(=O)C1` (stereo not drawn) [Material 206] as the compound, how does the “Comment Code: Log” value read?
**A.** K (Log of liquid dish neat product liquid-air partition coefficient greater than or equal to −7)

**Q.** Which “Comment Code: Log” value does the source give for `COc1ccc(COC=O)cc1` [Material 665] here?
**A.** K (Log of liquid dish neat product liquid-air partition coefficient greater than or equal to −7)

**Q.** With `CC(=O)OC1CC2C3C=CCC3C1C2(C)C` (stereo not drawn) [Material 360] as the compound, how does the “Comment Code: Log” value read?
**A.** K (Log of liquid dish neat product liquid-air partition coefficient greater than or equal to −7)

**Q.** Which “Comment Code: Log” value does the source give for `CC1CCOC(c2ccccc2)C1` (stereo not drawn) [Material 420] here?
**A.** K (Log of liquid dish neat product liquid-air partition coefficient greater than or equal to −7)

**Q.** With `O=C/C=C/c1ccccc1` [Material 554] as the compound, how does the “Comment Code: Log” value read?
**A.** K (Log of liquid dish neat product liquid-air partition coefficient greater than or equal to −7)

**Q.** With `c1ccc(COCc2ccccc2)cc1` [Material 454] as the compound, how does the “Comment Code: Log” value read?
**A.** K (Log of liquid dish neat product liquid-air partition coefficient greater than or equal to −7)

**Q.** Which “Comment Code: Log” value does the source give for `C=CCOC(=O)COc1ccccc1` [Material 743] here?
**A.** K (Log of liquid dish neat product liquid-air partition coefficient greater than or equal to −7)

**Q.** With `C=Cc1ccc(O)cc1` [Material 789] as the compound, how does the “Comment Code: Log” value read?
**A.** K (Log of liquid dish neat product liquid-air partition coefficient greater than or equal to −7)

**Q.** With `CC(=O)[C@@]1(C)CC2=C(CCCC2(C)C)C[C@@H]1C` [Material 215] as the compound, how does the “Comment Code: Log” value read?
**A.** K (Log of liquid dish neat product liquid-air partition coefficient greater than or equal to −7)

**Q.** Which “Comment Code: Log” value does the source give for `CNC(=O)C(C)(C(C)C)C(C)C` [Material 846] here?
**A.** K (Log of liquid dish neat product liquid-air partition coefficient greater than or equal to −7)

**Q.** Which “Comment Code: Log” value does the source give for `C=CC(C)(CCC=C(C)C)OC(C)=O` (stereo not drawn) [Material 154] here?
**A.** K (Log of liquid dish neat product liquid-air partition coefficient greater than or equal to −7)

**Q.** For `COC1CC2CC1C1CC(C=O)CC21` (stereo not drawn) [Material 1027], which “Comment Code: Log” value is on record?
**A.** K (Log of liquid dish neat product liquid-air partition coefficient greater than or equal to −7)

**Q.** With `CCCc1ccc(O)c(OC)c1` [Material 440] as the compound, how does the “Comment Code: Log” value read?
**A.** K (Log of liquid dish neat product liquid-air partition coefficient greater than or equal to −7)

**Q.** For `CC(C)C(=O)OC1CC2CCC1(C)C2(C)C` (stereo not drawn) [Material 229], which “Comment Code: Log” value is on record?
**A.** K (Log of liquid dish neat product liquid-air partition coefficient greater than or equal to −7)

**Q.** Which “Comment Code: Log” value does the source give for `CCC(C)C(=O)N(C)c1ccccc1` (stereo not drawn) [Material 314] here?
**A.** K (Log of liquid dish neat product liquid-air partition coefficient greater than or equal to −7)

**Q.** Which “Comment Code: Log” value does the source give for `C=C(C)C(=O)OCCc1ccccc1` [Material 971] here?
**A.** K (Log of liquid dish neat product liquid-air partition coefficient greater than or equal to −7)

**Q.** Which “Comment Code: Log” value does the source give for `CC(=O)CCc1ccccc1` [Material 640] here?
**A.** K (Log of liquid dish neat product liquid-air partition coefficient greater than or equal to −7)
